# Data taken from patent publication US12479825B2, “Melanocortin subtype-2 receptor (MC2R) antagonists and uses thereof” (Crinetics Pharmaceuticals, Inc., priority 2019, dated 2025).
# Molecular target: T1, hMC2 receptor (Homo sapiens, UniProt Q01718)
# T1 construct: host or cells: CRE-bla-CHO-K1 cells, crude membrane fraction
# Experiment: hMC2 membrane binding assay ([125I]ACTH (1-39) Tyr23, SPA)
# Details: crude hMC2R membranes from CRE-bla-CHO-K1 cells expressing hMC2 receptor and hMRAP; 0.2 nM [125I]ACTH (1-39) Tyr23; 1.5 hours at room temperature; read-out: MC2R binding potency
# Description: Crude membrane fractions are prepared from CRE-bla-CHO-K1 cells stably expressing hMC2 receptor and hMRAP accessory protein (Thermo Fisher). The cells are grown to 85-100% confluence on standard tissue culture dishes in GlutaMax DMEM growth media (Gibco) with following additives: 10% dialyzed FBS (Gemini), 0.1 mM NEAA (Gibco), 25 mM HEPES (Gibco), 5 μg/mL blasticidin (Goldbio), 100 μg/mL zeocin (Invitrogen), 600 μg/mL hygromycin (Goldbio). To prepare membranes, cells are scraped and collected in 1× Dulbecco's phosphate buffered saline (Corning) and then pelleted at 1000 RPM's. The cell pellet is reconstituted in membrane preparation buffer (20 mM HEPES, 6 mM MgCl2 and 1 mM EGTA, protease inhibitor tablets (Pierce) adjusted to pH 7.4), homogenized using a dounce homogenizer, and the resulting membrane fraction is pelleted by centrifugation at 12,000 RPM's. The membrane pellet is resuspended in membrane preparation buffer, snap freezed and stored at −80° C. for later use.
# The hMC2 membrane binding assay utilizes the following components: radiolabel [^125I]ACTH (1-39) Tyr23 (PerkinElmer), wheat germ agglutinin coated PVT SPA beads (PerkinElmer), crude hMC2R membranes, and compounds. Briefly hMC2R membranes are incubated with SPA beads in binding assay buffer (50 mM HEPES, 5 mM MgCl2, 1 mM CaCl2, 0.2% BSA, protease inhibitor tablets (Pierce) adjusted to pH7.4) prior to assay initiation. A dose response of compound (the final concentration of compound is typically 0-10,000 nM), SPA membranes, and [^125I]ACTH (1-39) Tyr23 at a final concentration of 0.2 nM is plated in a 96-well assay plate and allowed to incubate 1.5 hours at room temperature. Assay plates are read using a Top Count NXT and Ki values for compounds are determined using a GraphPad Prism 6 non-linear regression analysis.
# T1 sequence (Q01718 whole entry): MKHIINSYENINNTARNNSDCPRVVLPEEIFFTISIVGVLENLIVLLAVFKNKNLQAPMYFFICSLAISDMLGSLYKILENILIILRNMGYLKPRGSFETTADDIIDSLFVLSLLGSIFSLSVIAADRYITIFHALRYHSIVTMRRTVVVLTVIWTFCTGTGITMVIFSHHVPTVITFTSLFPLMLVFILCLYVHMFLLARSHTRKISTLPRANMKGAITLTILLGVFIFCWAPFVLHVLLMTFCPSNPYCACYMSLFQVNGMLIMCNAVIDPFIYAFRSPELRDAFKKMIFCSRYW
# T1 sequence (Q8TCY5 whole entry partner): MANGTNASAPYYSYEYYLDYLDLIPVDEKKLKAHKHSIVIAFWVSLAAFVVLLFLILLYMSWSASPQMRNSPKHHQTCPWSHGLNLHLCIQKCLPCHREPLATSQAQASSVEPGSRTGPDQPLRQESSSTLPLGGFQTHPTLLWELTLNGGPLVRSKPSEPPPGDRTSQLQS
row,Structure (SMILES),Ki
1,"CCOc1ccc(C(=O)N2CCN(c3ccc(-c4cccnc4OCC)nc3OC[C@H](C)N)[C@H](CC)C2)c(C(F)(F)F)n1 [1-20, (2S)-1-({2′-ethoxy-5-[(2R)-4-[6-ethoxy-2-(trifluoromethyl)pyridine-3-carbonyl]-2-ethylpiperazin-1-yl]-[2,3′-bipyridin]-6-yl}oxy)propan-2-amine]",< 0.01 µM
2,"CCOc1ncccc1-c1ccc(N2CC[C@H](Oc3ccc(C)cc3C#N)C[C@@H]2C2CC2)c(C(=O)N[C@@H]2CCN(C)C2)n1 (mixture of isomers) [2-16, 5-[cis-4-(2-cyano-4-methylphenoxy)-2-cyclopropylpiperidin-1-yl]-2′-ethoxy-N-[(3R)-1-methylpyrrolidin-3-yl]-[2,3′-bipyridine]-6-carboxamide]",< 0.01 µM
3,"CCOc1ccccc1-c1ccc(N2CC[C@@H](Oc3ccc(C(F)(F)F)nc3C#N)C[C@H]2C)c(C(=O)N[C@@H]2CCN(C)C2)n1 (racemic) [2-23, 3-(cis*-4-{[2-cyano-6-(trifluoromethyl)pyridin-3-yl]oxy}-2-methylpiperidin-1-yl)-6-(2-ethoxyphenyl)-N-[(3R)-1-methylpyrrolidin-3-yl]pyridine-2-carboxamide]",< 0.01 µM
4,"CCOc1ncccc1-c1ccc(N2CCN(C(=O)C3(C(F)(F)F)CCCC3)C[C@H]2CC)c(O[C@@H]2CCN(C)C2)n1 [1-3, 2′-ethoxy-5-[(2R)-2-ethyl-4-[1-(trifluoromethyl)cyclopentanecarbonyl]piperazin-1-yl]-6-{[(3R)-1-methylpyrrolidin-3-yl]oxy}-2,3′-bipyridine]",0.01 to 0.1 µM
5,"CCOc1ncccc1-c1ccc(N2CCN(C(=O)N3CCC[C@H]3C(F)(F)F)C[C@H]2CC)c(OCCNC)n1 [1-11, [2-({2′-ethoxy-5-[(2R)-2-ethyl-4-[(2S)-2-(trifluoromethyl)pyrrolidine-1-carbonyl]piperazin-1-yl]-[2,3′-bipyridin]-6-yl}oxy)ethyl](methyl)amine]",< 0.01 µM
6,"CCOc1ncccc1-c1ccc(N2CCN(C(=O)c3ccc(Cl)cc3Cl)C[C@H]2CC)c(OCCNC)n1 [1-28, [2-({5-[(2R)-4-(2,4-dichlorobenzoyl)-2-ethylpiperazin-1-yl]-2′-ethoxy-[2,3′-bipyridin]-6-yl}oxy)ethyl](methyl)amine]",< 0.01 µM
7,"CCOc1ncccc1-c1ccc(N2CCN(C(=O)c3ccc(F)cc3C(F)(F)F)C[C@H]2CC)c(OCCNC)n1 [1-27, [2-({2′-ethoxy-5-[(2R)-2-ethyl-4-[4-fluoro-2-(trifluoromethyl)benzoyl]piperazin-1-yl]-[2,3′-bipyridin]-6-yl}oxy)ethyl](methyl)amine]",< 0.01 µM
8,"CCOc1ncccc1-c1ccc(N2CCN(C(=O)N3CCc4cccc(C#N)c43)C[C@H]2CC)c(OCCNC)n1 [1-23, 1-[(3R)-4-{2′-ethoxy-6-[2-(methylamino)ethoxy]-[2,3′-bipyridin]-5-yl}-3-ethylpiperazine-1-carbonyl]-2,3-dihydro-1H-indole-7-carbonitrile]",< 0.01 µM

# Other lines, results leading:
row,Ki,Structure (SMILES)
1,0.1 to 1 µM,"CCOc1ncccc1-c1ccc(N2CC[C@H](S(=O)(=O)c3ccccc3C(F)(F)F)C[C@H]2CC)c(C(=O)N[C@@H]2CCN(C)C2)n1 (racemic) [5-2, rac-2′-ethoxy-5-[(2R,4S)-2-ethyl-4-[2-(trifluoromethyl)benzenesulfonyl]piperidin-1-yl]-N-[(3R)-1-methylpyrrolidin-3-yl]-[2,3′-bipyridine]-6-carboxamide]"
2,0.01 to 0.1 µM,"CCOc1ncccc1-c1ccc(N2CC[C@@H](Oc3ccc(Cl)cc3C(F)(F)F)C[C@H]2CC)c(O[C@@H]2CCN(C)C2)n1 (mixture of isomers) [3-9, 5-[rac-(2R,4R)-4-[4-chloro-2-(trifluoromethyl)phenoxy]-2-ethylpiperidin-1-yl]-2′-ethoxy-6-{[(3R)-1-methylpyrrolidin-3-yl]oxy}-2,3′-bipyridine]"
3,< 0.01 µM,"CCOc1ncccc1-c1ccc(C2CCN(c3ccc(C(F)(F)F)nc3C#N)CC2)c(OCCNC)n1 [3-2, 3-(4-{2′-ethoxy-6-[2-(methylamino)ethoxy]-[2,3′-bipyridin]-5-yl}piperidin-1-yl)-6-(trifluoromethyl)pyridine-2-carbonitrile]"
